Reference: article PMC11200585, “Prospects for Prostate Cancer Chemotherapy: Cytotoxic Evaluation and Mechanistic Insights of Quinolinequinones with ADME/PK Profile” (Biomedicines, 2024)

Key:
Format in all cases: cell-based, human
A549/ATCC = test: NCI-60 one-dose screen (non-small cell lung cancer); settings: 10 µM single dose, 48 h
Procedure: (§1) The obtained quinolinequinones were submitted to NCI, Bethesda, USA, and, as per standard protocol of NCI, all compounds were evaluated for their antiproliferative activity at single-dose assay (10 µM concentration in DMSO) on a panel of 60 cancer cell lines derived from leukemia, non-small-cell lung, colon, CNS, melanoma, ovarian, renal, prostate, and breast, as per protocol. Tested compounds were added to the microtiter culture plates followed by incubation for 48 h at 37 °C. Sulforhodamine B (SRB), a protein-binding dye, is used for endpoint determination. The percent of the growth of the treated cells was determined in comparison to the untreated control cells and the results of each tested compound were reported. Data from one-dose experiments pertain to the percentage growth at 10 μM [16, 17, 18].

EKVX = test: as above; settings: 10 µM single dose, 48 h
Procedure: as §1

HOP-62 [1] = test: as above; settings: 10 µM single dose
Procedure: as §1

HOP-92 [2] = test: as above; settings: 10 µM single dose, 48 h
Procedure: as §1

NCI-H226 [3] = test: as above; settings: 10 µM single dose, 48 h
Procedure: as §1

NCI-H322M = test: as above; settings: 10 µM single dose, 48 h
Procedure: as §1

NCI-H460 = test: as above; settings: 10 µM single dose
Procedure: as §1

NCI-H522 = test: as above; settings: 10 µM single dose, 48 h
Procedure: as §1

IGROV1 = test: NCI-60 one-dose screen (ovarian cancer); settings: 10 µM single dose, 48 h
Procedure: as §1

NCI/ADR-RES = test: NCI-60 one-dose screen (ovarian cancer); settings: 10 µM single dose, 48 h
Procedure: as §1

OVCAR-4 = test: NCI-60 one-dose screen (ovarian cancer); settings: 10 µM single dose, 48 h
Procedure: as §1

OVCAR-5 = test: NCI-60 one-dose screen (ovarian cancer); settings: 10 µM single dose
Procedure: as §1

OVCAR-8 = test: NCI-60 one-dose screen (ovarian cancer); settings: 10 µM single dose, 48 h
Procedure: as §1

SK-OV-3 = test: NCI-60 one-dose screen (ovarian cancer); settings: 10 µM single dose, 48 h
Procedure: as §1

HL-60(TB) = test: NCI-60 five-dose assay (leukemia); settings: 48 h, SRB
RPMI-8226 = test: NCI-60 five-dose assay (leukemia); settings: 48 h, SRB
HOP-62 [4] = test: NCI-60 five-dose assay (non-small cell lung cancer); settings: 48 h, SRB
HOP-92 [5] = test: as above; settings: 48 h, SRB
NCI-H226 [6] = test: as above; settings: 48 h, SRB
COLO 205 = test: NCI-60 five-dose assay (colon cancer); settings: 48 h, SRB
HCT-116 = test: NCI-60 five-dose assay (colon cancer); settings: 48 h, SRB
HCT-15 = test: NCI-60 five-dose assay (colon cancer); settings: 48 h, SRB
KM12 = test: NCI-60 five-dose assay (colon cancer); settings: 48 h, SRB
SF-539 = test: NCI-60 five-dose assay (CNS cancer); settings: 48 h, SRB
SNB-19 = test: NCI-60 five-dose assay (CNS cancer); settings: 48 h, SRB
U251 = test: NCI-60 five-dose assay (CNS cancer); settings: SRB
M14 = test: NCI-60 five-dose assay (melanoma); settings: 48 h, SRB
SK-MEL-2 = test: NCI-60 five-dose assay (melanoma); settings: 48 h, SRB
SK-MEL-28 = test: NCI-60 five-dose assay (melanoma); settings: 48 h, SRB
UACC-257 = test: NCI-60 five-dose assay (melanoma); settings: 48 h, SRB
786-0 = test: NCI-60 five-dose assay (renal cancer); settings: 48 h, SRB
ACHN = test: NCI-60 five-dose assay (renal cancer); settings: 48 h, SRB
CAKI-1 = test: NCI-60 five-dose assay (renal cancer); settings: 48 h, SRB
RXF 393 = test: NCI-60 five-dose assay (renal cancer); settings: 48 h, SRB
SN12C = test: NCI-60 five-dose assay (renal cancer); settings: 48 h, SRB
MDA-MB-231/ATCC = test: NCI-60 five-dose assay (breast cancer); settings: 48 h, SRB
[7] = Homo sapiens, read-out: LC50 (the source's name)

`COc1cc(NC2=C(Cl)C(=O)c3nc(C)ccc3C2=O)cc(OC)c1` [AQQ5] was tested, and the “GP (growth percentage)” value (A549/ATCC) was 42.41%, the “GP (growth percentage)” value (EKVX) was 74.66% and the “GP (growth percentage)” value (HOP-62 [1]; 48 h) was 0.85%. The inhibition at 10 µM (HOP-62 [1]; Homo sapiens) was 99.2%, the “GP (growth percentage)” value (HOP-92 [2]) was −12.23% and the “GP (growth percentage)” value (NCI-H226 [3]) was 68.59%. For the same molecule, the “GP (growth percentage)” value (NCI-H322M) was 89.75%, the “GP (growth percentage)” value (NCI-H460; 48 h) was 2.02% and the inhibition at 10 µM (NCI-H460; Homo sapiens) was 98%. For the same molecule, the “GP (growth percentage)” value (NCI-H522) was −80.61%, the “GP (growth percentage)” value (IGROV1) was −23.13% and the “GP (growth percentage)” value (NCI/ADR-RES) was −1.26%. The “GP (growth percentage)” value (OVCAR-4) was −93.28%, the “GP (growth percentage)” value (OVCAR-5; 48 h) was 22.00% and the inhibition at 10 µM (OVCAR-5; Homo sapiens) was 78%. The “GP (growth percentage)” value (OVCAR-8) was −0.82%, the “GP (growth percentage)” value (SK-OV-3) was 93.82% and the TGI (HL-60(TB)) was 4.65 µM. The GI50 (HL-60(TB); Homo sapiens) was 1.38 µM, the CC50 (HL-60(TB); [7]) was greater than 100 µM and the TGI (RPMI-8226) was 5.19 µM. The GI50 (RPMI-8226; Homo sapiens) was 1.79 µM, the CC50 (RPMI-8226; [7]) was greater than 100 µM and the TGI (HOP-62 [4]) was 14.1 µM. The GI50 (HOP-62 [4]; Homo sapiens) was 4.26 µM, the LC50 (concentration killing 50% of cells) (HOP-62 [4]; Homo sapiens) was 37.7 µM and the TGI (HOP-92 [5]) was 3.17 µM. For the same molecule, the GI50 (HOP-92 [5]; Homo sapiens) was 1.73 µM, the LC50 (50% lethal concentration) (HOP-92 [5]; Homo sapiens) was 5.83 µM and the TGI (NCI-H226 [6]) was 8.35 µM. The GI50 (NCI-H226 [6]; Homo sapiens) was 2.82 µM, the LC50 (NCI-H226 [6]; Homo sapiens) was 46.1 µM and the TGI (COLO 205) was 3.08 µM. For the same molecule, the GI50 (COLO 205; Homo sapiens) was 1.68 µM, the CC50 (COLO 205; [7]) was 5.63 µM and the TGI (HCT-116) was 2.88 µM. For the same molecule, the GI50 (HCT-116; Homo sapiens) was 1.53 µM, the LC50 (HCT-116; Homo sapiens) was 5.45 µM and the TGI (HCT-15) was 3.92 µM. It also gave a GI50 (HCT-15; Homo sapiens) of 1.54 µM, a TGI (KM12) of 26.6 µM and a GI50 (KM12; Homo sapiens) of 13 µM. The CC50 (KM12; [7]) was 54.7 µM, the TGI (SF-539) was 3.22 µM and the GI50 (SF-539; Homo sapiens) was 1.79 µM. For the same molecule, the LC50 (SF-539; Homo sapiens) was 5.78 µM, the TGI (SNB-19) was 18.8 µM and the GI50 (SNB-19; Homo sapiens) was 5.82 µM. It also gave a CC50 (SNB-19; [7]) of 44.2 µM, a TGI (U251; 48 h) of 4.44 µM and a GI50 (U251; Homo sapiens, U-251, 48 h) of 1.92 µM. It also gave an LC50 (concentration killing 50% of cells) (U251; Homo sapiens, U-251, 48 h) of 10.8 µM, a TGI (M14) of 3.09 µM and a GI50 (M14; Homo sapiens) of 1.69 µM. For the same molecule, the LC50 (M14; Homo sapiens) was 5.66 µM, the TGI (SK-MEL-2) was 3.10 µM and the GI50 (SK-MEL-2; Homo sapiens) was 1.59 µM. It also gave a CC50 (SK-MEL-2; [7]) of 6.03 µM, a TGI (SK-MEL-28) of 3.23 µM and a GI50 (SK-MEL-28; Homo sapiens) of 1.79 µM. It also gave an LC50 (SK-MEL-28; Homo sapiens) of 5.85 µM, a TGI (UACC-257) of 2.85 µM and a GI50 (UACC-257; Homo sapiens) of 1.51 µM. The LC50 (NCI-60 lethal concentration, 50% cell kill) (UACC-257; Homo sapiens) was 5.37 µM, the TGI (786-0) was 2.88 µM and the GI50 (786-0; Homo sapiens) was 1.52 µM. The LC50 (786-0; Homo sapiens) was 5.44 µM, the TGI (ACHN) was 3.04 µM and the GI50 (ACHN; Homo sapiens) was 1.67 µM. The LC50 (ACHN; Homo sapiens) was 5.51 µM, the TGI (CAKI-1) was 3.15 µM and the GI50 (CAKI-1; Homo sapiens) was 1.76 µM. The LC50 (lethal concentration, 50% net cell kill) (CAKI-1; Homo sapiens) was 5.65 µM, the TGI (RXF 393) was 2.99 µM and the GI50 (RXF 393; Homo sapiens) was 1.63 µM. The LC50 (RXF 393; Homo sapiens) was 5.48 µM, the TGI (SN12C) was 3.25 µM and the GI50 (SN12C; Homo sapiens) was 1.71 µM. It also gave an LC50 (concentration killing 50% of starting cells) (SN12C; Homo sapiens) of 6.19 µM, a TGI (MDA-MB-231/ATCC) of 3.08 µM and a GI50 (MDA-MB-231/ATCC; Homo sapiens) of 1.46 µM. The LC50 (concentration killing 50% of cells) (MDA-MB-231/ATCC; Homo sapiens) was 6.48 µM.
